The values below come from ChEMBL document CHEMBL1201862, “PubChem BioAssay data set” (2004).

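Compound exposure: 48 hours, 5 concentrations, 96-well plates. Abbreviation: GI50, concentration required for 50% inhibition of growth.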 Active and inactive are the calls of the source. Rule as the data show it: active = GI50 up to about 1.1 µM and inactive = higher.

Among the test systems are CAKI-1; SK-MEL-2; HCT-116; TK-10; HT-29; OVCAR-5; M14; U-251; COLO 205; Hs-578T; UACC-257; HOP-62; SF-539; NCI-H23; OVCAR-4; MOLT-4; HL-60; PC-3; HCC 2998; SR.
Holding throughout (assay): inhibition of tumour cell growth, NCI panel, 48 h

`CN(CCCNC(=O)c1n[nH]c2c1ccc1ccccc12)CCCNC(=O)c1n[nH]c2c1ccc1ccccc12`: the GI50 with CAKI-1 was 16.8 µM (inactive); with SK-MEL-2 it was 10.6 µM (inactive); in the assay with HCT-116 it was 12.7 µM (inactive); in the assay with TK-10, 17.9 µM (inactive); in the assay with HT-29, 14.6 µM (inactive); with OVCAR-5 it was 20.4 µM (inactive). The GI50 in the assay with M14 was 4.3 µM (inactive); in the assay with U-251, 14.8 µM (inactive); with COLO 205, 2.69 µM (inactive); in the assay on Hs-578T it was 16.8 µM (inactive); in the assay on UACC-257 it was 4.24 µM (inactive); with HOP-62 it was 16.8 µM (inactive). Also, the GI50 in the assay with SF-539 was 11 µM (inactive); in the assay on NCI-H23 it was 17.9 µM (inactive); with OVCAR-4, 17.3 µM (inactive); in the assay on MOLT-4, 10.4 µM (inactive); in the assay with HL-60, 1.67 µM (inactive); with PC-3 it was 14.7 µM (inactive). In the assay with HCC 2998, the GI50 is 1.9 µM (inactive).
With `Cc1[nH]c2c(c1Cc1ccccc1)C1=NC=C(O)NN1C=N2`, the GI50 in the assay with CAKI-1 is > 100 µM (inactive); with SK-MEL-2, > 100 µM (inactive); in the assay on HCT-116 it was 85.7 µM (inactive); in the assay on TK-10, 74.1 µM (inactive); with HT-29, 80 µM (inactive); with OVCAR-5 it was > 100 µM (inactive). Also, the GI50 was > 100 µM (inactive) with M14; 70.1 µM (inactive) in the assay on U-251; 22 µM (inactive) with COLO 205; 67.5 µM (inactive) with Hs-578T; > 100 µM (inactive) with UACC-257; > 100 µM (inactive) in the assay with HOP-62. For the same compound, the GI50 was 86.9 µM (inactive) in the assay with SF-539; 53.7 µM (inactive) with NCI-H23; > 100 µM (inactive) with OVCAR-4; 29 µM (inactive) in the assay on MOLT-4; > 100 µM (inactive) in the assay with HL-60; 82.2 µM (inactive) with PC-3. The GI50 with HCC 2998 is 53.8 µM (inactive).
On to `CCCCCCCCCCCCCCCCCc1nc(C#N)c(N)o1`, for which the GI50 in the assay with CAKI-1 is 19.9 µM (inactive); in the assay with SK-MEL-2, > 100 µM (inactive); in the assay on HCT-116 it was > 100 µM (inactive); in the assay on TK-10, > 100 µM (inactive); in the assay on HT-29, > 100 µM (inactive); in the assay on OVCAR-5, 73.1 µM (inactive). Moreover, the GI50 with M14 was 98.6 µM (inactive); in the assay on U-251, 44.2 µM (inactive); in the assay on Hs-578T, 20.8 µM (inactive); in the assay with UACC-257, > 100 µM (inactive); with HOP-62 it was > 100 µM (inactive); in the assay with MOLT-4 it was 5.06 µM (inactive). For the same compound, the GI50 in the assay on HL-60 is 3.53 µM (inactive); in the assay with SR, 7.89 µM (inactive); in the assay on PC-3 it was 24.4 µM (inactive).
As to `O=C1c2cccnc2-c2nccc3ccnc1c23`, the GI50 in the assay on CAKI-1 was 0.116 µM (active); in the assay with SK-MEL-2 it was 2.16 µM (inactive); with HCT-116, 0.0865 µM (active); in the assay on TK-10 it was 1.7 µM (inactive); in the assay with HT-29, 0.575 µM (active); in the assay with OVCAR-5, 2.07 µM (inactive). For the same compound, the GI50 was 1.02 µM (active) in the assay on M14; 1.05 µM (active) in the assay on U-251; 0.372 µM (active) in the assay on COLO 205; 2.02 µM (inactive) in the assay with Hs-578T; 0.964 µM (active) in the assay with UACC-257; 3.53 µM (inactive) in the assay on HOP-62. In addition, the GI50 is 1.5 µM (inactive) in the assay on SF-539; 0.281 µM (active) in the assay on NCI-H23; 1.91 µM (inactive) in the assay with OVCAR-4; 0.413 µM (active) in the assay on MOLT-4; 0.0248 µM (active) with HL-60; 1.36 µM (inactive) in the assay with PC-3. Moreover, in the assay on HCC 2998, the GI50 was 1.4 µM (inactive).
Regarding `CC1(C)CC(=O)C2(CC(CSc3ccccc3)C(CS(=O)(=O)c3ccccc3)C2)C(=O)C1` (configuration not stated), the GI50 was > 100 µM (inactive) with CAKI-1; > 100 µM (inactive) with SK-MEL-2; > 100 µM (inactive) with HCT-116; > 100 µM (inactive) with TK-10; 78.3 µM (inactive) in the assay on HT-29; > 100 µM (inactive) in the assay on OVCAR-5. For the same compound, the GI50 in the assay on M14, in the assay with U-251, in the assay on COLO 205, with Hs-578T, with UACC-257 and with HOP-62 was > 100 µM (inactive) in each case. For the same compound, the GI50 with SF-539 was > 100 µM (inactive); with NCI-H23 it was > 100 µM (inactive); in the assay with OVCAR-4, > 100 µM (inactive); with MOLT-4 it was > 100 µM (inactive); with PC-3, 30.8 µM (inactive); in the assay on HCC 2998, > 100 µM (inactive).
In the case of `Nc1nc(Cl)c(N)c(NCC2(CO)CCC(OCc3ccccc3)C2)n1` (configuration not stated), the GI50 is > 100 µM (inactive) in the assay on CAKI-1; 84.1 µM (inactive) in the assay with SK-MEL-2; > 100 µM (inactive) in the assay on HCT-116; > 100 µM (inactive) in the assay on TK-10; > 100 µM (inactive) in the assay with HT-29; > 100 µM (inactive) in the assay with OVCAR-5. Besides, the GI50 with U-251 was > 100 µM (inactive); in the assay on COLO 205, > 100 µM (inactive); with Hs-578T it was > 100 µM (inactive); in the assay with UACC-257, 0.522 µM (active); with HOP-62, > 100 µM (inactive); with SF-539, > 100 µM (inactive). The GI50 was > 100 µM (inactive) with NCI-H23; 43.4 µM (inactive) in the assay on OVCAR-4; 31.7 µM (inactive) with MOLT-4; > 100 µM (inactive) in the assay with PC-3; > 100 µM (inactive) in the assay on HCC 2998.
In the case of `CCC(=O)C1(N2CCOCC2)CCN(CCCC(=O)c2ccc(F)cc2)CC1`, the GI50 was > 100 µM (inactive) with CAKI-1; > 100 µM (inactive) in the assay with SK-MEL-2; > 100 µM (inactive) in the assay on HCT-116; > 100 µM (inactive) with TK-10; 39.2 µM (inactive) with HT-29; > 100 µM (inactive) in the assay on OVCAR-5. The GI50 in the assay with M14, in the assay on U-251, with COLO 205, with Hs-578T, in the assay on HOP-62 and in the assay with SF-539 was > 100 µM (inactive) in each case. Moreover, the GI50 in the assay with NCI-H23, in the assay on OVCAR-4, in the assay on MOLT-4, in the assay with HL-60, with PC-3 and in the assay with HCC 2998 was > 100 µM (inactive) each time.
Take `O=C(O)CCCc1ccc2ccc3ccccc3c2c1`: the GI50 was > 100 µM (inactive) in the assay on CAKI-1; 26.7 µM (inactive) in the assay with SK-MEL-2; 89.1 µM (inactive) in the assay with HCT-116; 57.4 µM (inactive) in the assay with TK-10; 83.9 µM (inactive) in the assay with HT-29; 73.5 µM (inactive) with OVCAR-5. The GI50 with M14 was > 100 µM (inactive); in the assay with U-251 it was 71.1 µM (inactive); with COLO 205 it was 40.8 µM (inactive); with Hs-578T it was 38.8 µM (inactive); in the assay with UACC-257, 56.2 µM (inactive); with HOP-62, 34.8 µM (inactive). The GI50 with NCI-H23 was > 100 µM (inactive); in the assay with OVCAR-4, > 100 µM (inactive); in the assay with MOLT-4, 65.5 µM (inactive); in the assay with SR it was 51.9 µM (inactive); in the assay on PC-3 it was 34.8 µM (inactive).
Turning to `COc1c(-c2nc3ccc(N4CCN(C)CC4)nc3[nH]2)cc(OC)c2c1nc(CCl)n2C`, the GI50 in the assay with CAKI-1 was 16.6 µM (inactive); in the assay on SK-MEL-2, 11.6 µM (inactive); in the assay on HCT-116 it was 32.2 µM (inactive); in the assay on HT-29, 16.3 µM (inactive); with OVCAR-5, 21.6 µM (inactive); in the assay on M14, 16.9 µM (inactive). In addition, the GI50 in the assay with U-251 is 12.2 µM (inactive); with COLO 205, 14.4 µM (inactive); in the assay with Hs-578T, 32.9 µM (inactive); with UACC-257, 22.6 µM (inactive); in the assay on HOP-62, 21.4 µM (inactive); with SF-539 it was 4.99 µM (inactive). Further, the GI50 in the assay on NCI-H23 was 20.1 µM (inactive); in the assay with OVCAR-4, 18.3 µM (inactive); with MOLT-4, 18.1 µM (inactive); in the assay with HL-60, 26.5 µM (inactive); in the assay with PC-3, 11.2 µM (inactive); in the assay on HCC 2998, 15.7 µM (inactive).
Take `CC(=O)[O-].[Zn+].c1ccc(/C(=N\Nc2ccccn2)c2ccccn2)cc1`: the GI50 was 0.119 µM (active) with CAKI-1; 1.33 µM (inactive) with SK-MEL-2; 0.005 µM (active) with HCT-116; 0.44 µM (active) with TK-10; 0.01 µM (active) with HT-29; 0.025 µM (active) in the assay on OVCAR-5. Besides, the GI50 in the assay with M14 is 0.0813 µM (active); in the assay with U-251, 0.281 µM (active); with COLO 205, 0.00028 µM (active); in the assay on Hs-578T, 0.931 µM (active); in the assay with UACC-257, 0.08 µM (active); in the assay with HOP-62, 0.269 µM (active). Besides, the GI50 in the assay on SF-539 was 0.337 µM (active); in the assay with NCI-H23, 0.0155 µM (active); in the assay on OVCAR-4, 0.603 µM (active); in the assay on MOLT-4, 0.000773 µM (active); in the assay with HL-60 it was 0.00121 µM (active); in the assay on PC-3 it was 0.03 µM (active). In the assay with HCC 2998, the GI50 was 0.71 µM (active).
Turning to `CN(NC(=O)/C(=C\c1ccco1)NC(=O)c1ccccc1)c1cn[nH]c(=O)c1Cl`, the GI50 is > 100 µM (inactive) with CAKI-1; 80.5 µM (inactive) in the assay on SK-MEL-2; 51.5 µM (inactive) in the assay with HCT-116; > 100 µM (inactive) in the assay on TK-10; 58.6 µM (inactive) in the assay with HT-29; > 100 µM (inactive) with OVCAR-5. For the same compound, the GI50 in the assay with M14 is 66.2 µM (inactive); in the assay on U-251 it was 79.4 µM (inactive); in the assay on COLO 205, > 100 µM (inactive); with Hs-578T, 52.1 µM (inactive); with UACC-257, 48.8 µM (inactive); in the assay on HOP-62 it was 64.3 µM (inactive). In addition, the GI50 in the assay on SF-539 was 24.9 µM (inactive); in the assay with NCI-H23, > 100 µM (inactive); in the assay on OVCAR-4, > 100 µM (inactive); with MOLT-4, 29.6 µM (inactive); in the assay on SR, 29.9 µM (inactive); with PC-3, > 100 µM (inactive).
